# Results from US7834023B2 (Portola Pharmaceuticals, Inc., priority 2006, dated 2010).
# Target: T1, P2Y12 receptor (Homo sapiens, UniProt Q9H244)
# T1 construct: endogenous in cells; host or cells: human platelets (outdated from blood banks or fresh), apyrase-washed, whole
# Assay: platelet ADP receptor binding assay (ARB): inhibition of [3H]2-MeS-ADP binding to platelets
# Settings: [3H]2-MeS-ADP binding to apyrase-washed human platelets
# Description: 1. The Ability of Candidate Molecules to Inhibit the Binding of [^3H]2-MeS-ADP to the […] Receptor on Platelets was Determined Using a Radioligand Binding Assay.
# Utilizing this assay the potency of inhibition of such compounds with respect to [^3H]2-MeS-ADP binding to whole platelets is determined. Under the conditions described in II (3) below, the binding of [^3H]2-MeS-ADP is solely due to the interaction of this ligand with the P2Y12 receptor, in that all the specific binding measured in this assay is competable with a P2Y12 antagonist (i.e., the specific binding is reduced to background levels by competition with an excess of P2Y12 antagonist, with no competition of binding when a P2Y1 antagonist is pre-incubated with the platelet preparation). [^3H]2-MeS-ADP binding experiments are routinely performed with outdated human platelets collected by standard procedures at hospital blood banks. Apyrase-washed outdated platelets are prepared as follows (all steps at room temperature, if not indicated otherwise):
# Outdated platelet suspensions are diluted with 1 volume of CGS and platelets pelleted by centrifugation at 1900×g for 45 minutes. Platelet pellets are resuspended at 3-6×10^9 platelets/ml in CGS containing 1 U/ml apyrase (grade V, Sigma, St. Louis, Mo.) and incubated for 15 minutes at 37° C. After centrifugation at 730×g for 20 minutes, pellets are resuspended in Hepes-Tyrode's buffer containing 0.1% BSA (Sigma, St. Louis, Mo.) at a concentration of 6.66×10^8 platelets/ml. Binding experiments are performed after >45 minutes resting of the platelets.
# Alternatively, binding experiments are performed with fresh human platelets prepared as described in section I (Inhibition of ADP-Mediated Platelet Aggregation in vitro), except that platelets are resuspended in Hepes-Tyrode's buffer containing 0.1% BSA (Sigma, St. Louis, Mo.) at a concentration of 6.66×10^8 platelets/mil. Very similar results are obtained with fresh and outdated platelets.
# A platelet ADP receptor binding assay (ARB) using the tritiated potent agonist ligand [^3H]2-MeS-ADP (Jantzen, H. M. et al. (1999) Thromb. Hemost. 81:111-117) has been adapted to the 96-well microtiter format. In an assay volume of 0.2 ml Hepes-Tyrode's buffer with 0.1% BSA and 0.6% DMSO, 1×10^8 apyrase-washed platelets are preincubated in 96-well flat bottom microtiter plates for 5 minutes with serial dilutions of test compounds before addition of 1 nM [^3H]2-MeS-ADP ([^3H]2-methylthioadenosine-5′-diphosphate, ammonium salt; specific activity 20-50 Ci/mmole, obtained by custom synthesis from Amersham Life Science, Inc., Arlington Heights, Ill., or NEN Life Science Products, Boston, Mass.). Total binding is determined in the absence of test compounds. Samples for nonspecific binding may contain 10 μM unlabelled 2-MeS-ADP (RBI, Natick, Mass.). After incubation for 15 minutes at room temperature, unbound radioligand is separated by rapid filtration and two washes with cold (4-8° C.) Binding Wash Buffer (10 mM Hepes pH 7.4, 138 mM NaCl) using a 96-well cell harvester (Minidisc 96, Skatron Instruments, Sterling, Va.) and 8×12 GF/C glassfiber filtermats (Printed Filtermat A, for 1450 Microbeta, Wallac Inc., Gaithersburg, Md.). The platelet-bound radioactivity on the filtermats is determined in a scintillation counter (Microbeta 1450, Wallac Inc., Gaithersburg, Md.). Specific binding is determined by subtraction of non-specific binding from total binding, and specific binding in the presence of test compounds is expressed as % of specific binding in the absence of test compound dilutions. IC50s were derived by non-linear regression analysis.
# T1 sequence (Q9H244 whole entry): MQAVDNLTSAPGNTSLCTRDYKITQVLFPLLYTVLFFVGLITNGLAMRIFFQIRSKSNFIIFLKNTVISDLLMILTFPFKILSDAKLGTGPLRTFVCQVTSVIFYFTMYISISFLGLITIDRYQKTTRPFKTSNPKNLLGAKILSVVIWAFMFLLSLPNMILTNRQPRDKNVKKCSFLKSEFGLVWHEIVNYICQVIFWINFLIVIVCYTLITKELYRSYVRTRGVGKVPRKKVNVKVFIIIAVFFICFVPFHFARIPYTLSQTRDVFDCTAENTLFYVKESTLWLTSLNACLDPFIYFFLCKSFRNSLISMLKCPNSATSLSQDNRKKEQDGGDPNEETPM
row,IC50 [nM],Structure (SMILES)
1,> 500,"NC(=O)c1ccc2c(=O)n(-c3ccc(C(=O)NC(C(=O)O)c4ccc(Cl)s4)cc3)ccc2c1 (centres unmarked) [Compound 94, 2-(4-(6-carbamoyl-1-oxoisoquinolin-2(1H)-yl)benzamido)-2-(5-chlorothiophen-2-yl)acetic acid]"
2,> 500,"CNc1cc2[nH]c(=O)n(-c3ccc(C(=O)NC(C(=O)O)c4ccc(Cl)s4)c(OC)c3)c(=O)c2cc1F (centres unmarked) [Compound 42, 2-(5-chlorothiophen-2-yl)-2-(4-(6-fluoro-7-(methylamino)-2,4-dioxo-1,2-dihydroquinazolin-3(4H)-yl)-2-methoxybenzamido)acetic acid]"
3,> 500,"CNc1cc2[nH]c(=O)n(-c3ccc(C(=O)NC(C(=O)O)c4cccs4)cc3)c(=O)c2cc1F (centres unmarked) [Compound 8, 2-(4-(6-fluoro-7-(methylamino)-2,4-dioxo-1,2-dihydroquinazolin-3(4H)-yl)benzamido)-2-(thiophen-2-yl)acetic acid]"
4,50 to 500,"CNc1cc2c(cc1F)C(=O)N(c1ccc(C(=O)NC(Cc3ccc(Cl)s3)C(=O)O)cc1)CO2 (centres unmarked) [Compound 57, 3-(5-chlorothiophen-2-yl)-2-(4-(6-fluoro-7-(methylamino)-4-oxo-2H-benzo[e][1,3]oxazin-3(4H)-yl)benzamido)propanoic acid]"
5,50 to 500,"CNc1cc2[nH]c(=O)n(-c3ccc(C(=O)NC(C(=O)O)c4ccc(Cl)s4)s3)c(=O)c2cc1F (centres unmarked) [Compound 112, 2-(5-chlorothiophen-2-yl)-2-(5-(6-fluoro-7-(methylamino)-2,4-dioxo-1,2-dihydroquinazolin-3(4H)-yl)thiophene-2-carboxamido)acetic acid]"
6,> 500,"CNc1cc2[nH]c(=O)n(-c3ccc(C(=O)NC(c4cccc(F)c4)c4nnn[nH]4)cc3)c(=O)c2cc1F (centres unmarked) [Compound 24, 4-(6-fluoro-7-(methylamino)-2,4-dioxo-1,2-dihydroquinazolin-3(4H)-yl)-N-((3-fluorophenyl)(1H-tetrazol-5-yl)methyl)benzamide]"
7,> 500,"N#Cc1cn(-c2ccc(C(=O)NC(C(=O)O)c3ccc(Cl)s3)cc2)c(=O)c2ccccc12 (centres unmarked) [Compound 100, 2-(5-chlorothiophen-2-yl)-2-(4-(4-cyano-1-oxoisoquinolin-2(1H)-yl)benzamido)acetic acid]"
8,> 500,"CNc1cc2c(cc1F)C(=O)N(c1ccc(C(=O)NC(C(=O)O)c3cccs3)cc1)CO2 (centres unmarked) [Compound 63, 2-(4-(6-fluoro-7-(methylamino)-4-oxo-2H-benzo[e][1,3]oxazin-3(4H)-yl)benzamido)-2-(thiophen-2-yl)acetic acid]"
9,50 to 500,"CNc1cc2[nH]c(=O)n(-c3ccc(C(=O)NC(C(=O)O)c4cccc(Cl)c4)cc3)c(=O)c2cc1F (centres unmarked) [Compound 15, 2-(3-chlorophenyl)-2-(4-(6-fluoro-7-(methylamino)-2,4-dioxo-1,2-dihydroquinazolin-3(4H)-yl)benzamido)acetic acid]"
10,> 500,"CNc1cc2[nH]c(=O)n(-c3cc(C(=O)NC(C(=O)O)c4ccc(Cl)s4)cs3)c(=O)c2cc1F (centres unmarked) [Compound 113, 2-(5-chlorothiophen-2-yl)-2-(5-(6-fluoro-7-(methylamino)-2,4-dioxo-1,2-dihydroquinazolin-3(4H)-yl)thiophene-3-carboxamido)acetic acid]"
11,< 50,"CNc1cc2c(cc1F)C(=O)N(c1ccc(C(=O)N[C@@H](c3noc(=O)[nH]3)c3ccc(Cl)s3)cc1)CO2 [Compound 88, (S)-N-((5-chlorothiophen-2-yl)(5-oxo-4,5-dihydro-1,2,4-oxadiazol-3-yl)methyl)-4-(6-fluoro-7-(methylamino)-4-oxo-2H-benzo[e][1,3]oxazin-3(4H)-yl)benzamide]"
12,50 to 500,"CNc1cc2[nH]c(=O)n(-c3ccc(C(=O)NCc4ccc(Cl)s4)cc3)c(=O)c2cc1F [Compound 4, N-((5-chlorothiophen-2-yl)methyl)-4-(6-fluoro-7-(methylamino)-2,4-dioxo-1,2-dihydroquinazolin-3(4H)-yl)benzamide]"
13,50 to 500,"O=C(Nc1ccc(-n2c(=O)[nH]c3cc(NCc4ccc(F)cc4)ccc3c2=O)cc1)NC(C(=O)O)c1cccs1 (centres unmarked) [Compound 108, 2-(3-(4-(7-(4-fluorobenzylamino)-2,4-dioxo-1,2-dihydroquinazolin-3(4H)-yl)phenyl)ureido)-2-(thiophen-2-yl)acetic acid]"
14,> 500,"O=C(NC(C(=O)O)c1ccc(Cl)s1)c1ccc(N2COc3cc(NCc4ccc(F)cc4)ccc3C2=O)cc1 (centres unmarked) [Compound 84, 2-(5-chlorothiophen-2-yl)-2-(4-(7-(4-fluorobenzylamino)-4-oxo-2H-benzo[e][1,3]oxazin-3(4H)-yl)benzamido)acetic acid]"
15,< 50,"CNc1cc2c(cc1F)C(=O)N(c1ccc(C(=O)N[C@@H](c3nnn[nH]3)c3ccc(Cl)s3)cc1)CO2 [Compound 87, N-((5-chlorothiophen-2-yl)(1H-tetrazol-5-yl)methyl)-4-(6-fluoro-7-(methylamino)-4-oxo-2H-benzo[e][1,3]oxazin-3(4H)-yl)benzamide]"
16,50 to 500,"CNc1ccc2c(=O)n(-c3ccc(C(=O)NC(C(=O)O)c4ccc(Cl)s4)cc3)c(=O)[nH]c2c1 (centres unmarked) [Compound 20, 2-(5-chlorothiophen-2-yl)-2-(4-(7-(methylamino)-2,4-dioxo-1,2-dihydroquinazolin-3(4H)-yl)benzamido)acetic acid]"
17,> 500,"CNc1cc2[nH]c(=O)n(-c3cccc(C(=O)NC(C(=O)O)c4ccc(Cl)s4)c3)c(=O)c2cc1F (centres unmarked) [Compound 111, 2-(5-chlorothiophen-2-yl)-2-(3-(6-fluoro-7-(methylamino)-2,4-dioxo-1,2-dihydroquinazolin-3(4H)-yl)benzamido)acetic acid]"
18,> 500,"O=C(NC(C(=O)O)c1ccc(Cl)s1)c1ccc(N2COc3ccccc3C2=O)cc1 (centres unmarked) [Compound 83, 2-(5-chlorothiophen-2-yl)-2-(4-(4-oxo-2H-benzo[e][31]oxazin-3(4H)-yl)benzamido)acetic acid]"
19,> 500,"Cc1ccc2c(c1)C(=O)N(c1ccc(C(=O)NC(C(=O)O)c3ccc(Cl)s3)cc1)CO2 (centres unmarked) [Compound 77, 2-(5-chlorothiophen-2-yl)-2-(4-(6-methyl-4-oxo-2H-benzo[e][1,3]oxazin-3(4H)-yl)benzamido)acetic acid]"
20,50 to 500,CNc1cc2[nH]c(=O)n(-c3ccc(C(=O)NC(CO)c4ccc(Cl)s4)cc3)c(=O)c2cc1F (centres unmarked) [Compound 36]
21,> 500,"CCOC(=O)C(NC(=O)c1ccc(-n2c(=O)[nH]c3cc(NC)c(F)cc3c2=O)cc1)c1ccc(Cl)s1 (centres unmarked) [Compound 26, ethyl 2-(5-chlorothiophen-2-yl)-2-(4-(6-fluoro-7-(methylamino)-2,4-dioxo-1,2-dihydroquinazolin-3(4H)-yl)benzamido)acetate]"
22,> 500,"COc1cc2ccn(-c3ccc(C(=O)NC(C(=O)O)c4ccc(Cl)s4)cc3)c(=O)c2cc1F (centres unmarked) [Compound 92, 2-(5-chlorothiophen-2-yl)-2-(4-(7-fluoro-6-methoxy-1-oxoisoquinolin-2(1H)-yl)benzamido)acetic acid]"
23,> 500,"CNc1cc2[nH]c(=O)n(-c3ccc(C(=O)NC(C(=O)O)c4ccc(Cl)cc4)cc3)c(=O)c2cc1F (centres unmarked) [Compound 14, 2-(4-chlorophenyl)-2-(4-(6-fluoro-7-(methylamino)-2,4-dioxo-1,2-dihydroquinazolin-3(4H)-yl)benzamido)acetic acid]"
